“Also recorded” adds a separate entry of the source.
Experiments:
[1] = Pharmacokinetics in subjects with moderate renal impairment vs matched controls
Excerpt: (§1) Data are GMRs and 90% CIs. Reference used are the matched healthy subjects for renal and hepatic impairment studies, and extensive or ultra-extensive CYP2D6 metabolizers.

[2] = Food effect on pharmacokinetics of the subject combination; format: in vivo, human; conditions: subject combination administered with food
[3] = Pharmacokinetics in CYP2D6 poor metabolizers vs extensive metabolizers
Excerpt: Approximately 7 to 10% of Caucasians and 3 to 8% of African Americans lack the capacity to metabolize CYP2D6 substrates and are classified as poor metabolizers.
as §1

[4] = Pharmacokinetics after administration of the subject combination (steady state); conditions: human, in vivo; for half-life: mean elimination half-life
[5] = Co-administration of paroxetine (strong CYP2D6 inhibitor) and the subject combination
Excerpt: Co-administration of the SSRI paroxetine and the subject combination was studied in 29 healthy volunteers.

plasma protein = experiment: Plasma protein binding
[6] = 3 poor metabolizers compared to extensive metabolizers
[7] = 7 subjects with moderate renal impairment (GFR 30-60 mL/min) vs 6 matched controls with normal renal function
[8] = patients having moderate renal impairment
[9] = 20 mg paroxetine concomitantly with tablet twice daily vs tablet twice daily without paroxetine

## CC(NC(C)(C)C)C(=O)c1cccc(Cl)c1 (racemic) [bupropion]
[1]; human, in vivo
  concentrations compared with patients with healthy renal function: higher
  increase in AUC0-2: 1.80 fold
  increase of exposure: approximately 2 fold
  reduction of clearance: 50%

## COc1ccc2c(c1)[C@]13CCCC[C@@H]1[C@H](C2)N(C)CC3 [dextromethorphan]
[2]
  AUC0-2 decrease with food: 14%
  Cmax change with food: unchanged
[3]; [6]
  increase in AUC0-12: ~3.4 fold
  increase in Cmax: ~3 fold
[3]; steady state, subject combination
  plasma concentrations in CYP2D6 poor metabolizers compared with non-poor metabolizers: increases; also recorded: generally higher
[4]
  Tmax: ~3 h
[4]; following 8 days of administration of the subject combination in extensive metabolizers
  half-life: ~22 h
[4]; subject combination
  half-life: 22 h
[1]; [7]
  increase of exposure: approximately 2 fold
  reduction of clearance: 50%
[1]; [8]
  concentrations compared with patients with healthy renal function: higher
  increase in AUC0-2: 2.21 fold
[5]; [9]
  increase in AUC0-2: 2.69 fold
  increase in Cmax: 2.38 fold
[5]; 29 healthy volunteers, paroxetine co-administered with the subject combination
  change of overall exposure by paroxetine: 2.5 fold
[5]; concomitant use of the subject combination with a strong CYP2D6 inhibitor
  plasma concentrations with concomitant strong CYP2D6 inhibitor: increases
Plasma protein
  fraction unbound: 0.3 to 0.4

— patent publication US11839612B1, “Compounds and combinations thereof for treating neurological and psychiatric conditions” (priority 2022, dated 2023)
